The nature of series [1]: Storage test of reduced PQQ (oxidation to oxidized PQQ). Type of series: physicochemical. The procedure: In Examples and Comparative Examples, the UV measurements were performed on a HITACHI U-2000 Spectrophotometer.
In 500 g of water, […] of pyrroloquinoline quinone disodium was dissolved to a concentration of 0.01 mol/L. In 100 g of water, 3.51 g of L-ascorbic acid was dissolved to a concentration of 0.2 mol/L.
20 g of the pyrroloquinoline quinone disodium solution mentioned above having a concentration of 0.01 mol/L (pH 3.5) was mixed with 20 g of an L-ascorbic acid solution having a concentration of 0.2 mol/L at room temperature. The molar ratio of L-ascorbic acid is 20 with respect to pyrroloquinoline quinone. The pH of the solution was 2 as measured with a pH test strip. The mixed solution was allowed to react at room temperature overnight (pH 2). After the reaction, a solid of the reduced form was precipitated. Under this condition, it is believed that at least 15-fold moles of L-ascorbic acid is present, even allowing for the amounts consumed in the reduction reaction and in air oxidization.
The solid of the reduced form obtained in Example 6 was separated through centrifugation. The supernatant was removed, and the solid was washed with water. This process removed L-ascorbic acid. An aqueous sodium hydroxide solution was added thereto to adjust the value of pH to 7. All the reduced form was converted to the oxidized form in 30 minutes.
1 g of a pyrroloquinoline quinone disodium solution having a concentration of 0.01 mol/L (pH 3.5) was mixed with 1 g of an L-ascorbic acid solution having a concentration of 0.014 mol/L. When 1 g of this mixed solution was transferred to a 15-ml container and brought into contact with air, the solution included 14% of oxidized PQQ (pH 3). After this oxidized PQQ-containing reduced PQQ was left at 30° C. for one week, 18% of oxidized PQQ was included.

For series [2] the following is noted: Non-patent document 3; cited from earlier work.

In the case of `O=C(O)c1cc(C(=O)O)c2c(n1)c(O)c(O)c1cc(C(=O)O)[nH]c12` [reduced PQQ, reduced pyrroloquinoline quinone], in series [1] (Comparative Example 3: solid washed with water, L-ascorbic acid removed, pH adjusted to 7 with aqueous sodium hydroxide), the “time in which all the reduced form was converted to the oxidized form” value came to 30 min. Besides, the “state of the reduced form after storage” value in series [1] (Example 7: aqueous reaction solution, pH 2, at least 15-fold moles of L-ascorbic acid present, stored at room temperature for one week) is reported as “maintained in the reduced state”. In series [1] (Example 8: 0.01 mol/L PQQ disodium + 0.014 mol/L L-ascorbic acid mixed solution, pH 3, brought into contact with air, before storage), the “oxidized PQQ included” value is on record as 14%. For the same compound, the “oxidized PQQ included” value in series [1] (Example 8: same solution after being left at 30° C. for one week) is reported as 18%. In series [2], the “antioxidative activity compared with ascorbic acid” value is recorded as “greater antioxidative activity than that exhibited by ascorbic acid” and the “antioxidative activity compared with conventional PQQ” value is “extremely higher antioxidative activity than that exhibited by the conventional PQQ”.
